Source: the NIST ThermoML archive (doi:10.1021/acs.jced.7b00344)

Experiment: xn = mol fraction of the nth substance listed
Conditions: 101.3 kPa, Liquid; for viscosity: Capillary tube (Ostwald / Ubbelohde) method; for mass density: Pycnometric method

CC(=O)C1CCOC1=O (stereo not given) [2-acetylbutyrolactone] + CC(=O)C1CC1
Conditions	mass density, 303.15 K [kg/m3]	mass density, 313.15 K [kg/m3]	mass density, 323.15 K [kg/m3]	mass density, 333.15 K [kg/m3]	viscosity, 303.15 K [mPa·s]	viscosity, 313.15 K [mPa·s]	viscosity, 323.15 K [mPa·s]	viscosity, 333.15 K [mPa·s]
x2 = 0	1185.7	1178.3	1168.9	1159.4	3.794	3.424	3.067	2.719
x2 = 0.0998	1161.9	1154.3	1144.9	1135.6	3.195	2.889	2.609	2.33
x2 = 0.2009	1136.2	1128.5	1119.1	1109.7	2.633	2.369	2.118	1.892
x2 = 0.3004	1109.7	1101.8	1092.3	1082.9	2.164	1.945	1.748	1.571
x2 = 0.4002	1081.9	1073.7	1064.2	1054.8	1.786	1.599	1.415	1.278
x2 = 0.4999	1052.8	1044.3	1034.8	1025.4	1.452	1.306	1.154	1.025
x2 = 0.5999	1022.5	1013.8	1004.2	994.8	1.198	1.054	0.9344	0.8398
x2 = 0.6999	991.1	982.1	972.4	963.1	0.9813	0.8642	0.778	0.6958
x2 = 0.7999	958.3	949.2	939.6	930.2	0.783	0.6912	0.639	0.5704
x2 = 0.8999	924.5	915.5	905.9	896.5	0.6546	0.5854	0.5436	0.4933
